The values that follow come from US7408060B2, “Nonsteroidal progesterone receptor modulators” (Schering AG, priority 2005, dated 2008).

A word on the IC50: it is the point on the concentration scale where inhibition reaches its midpoint. Broadly, the EC50 is the concentration at which the effect is half-maximal.

Assay [1] has as its target T1, Progesterone Receptor PR-B (Homo sapiens, UniProt P06401).
T1 construct: expressed in transfected cells; From own knowledge of the cited Fuhrmann et al. 2000: SK-N-MC cells stably transfected with PR-B and an MMTV-luciferase reporter
T1 sequence (P06401 1-933): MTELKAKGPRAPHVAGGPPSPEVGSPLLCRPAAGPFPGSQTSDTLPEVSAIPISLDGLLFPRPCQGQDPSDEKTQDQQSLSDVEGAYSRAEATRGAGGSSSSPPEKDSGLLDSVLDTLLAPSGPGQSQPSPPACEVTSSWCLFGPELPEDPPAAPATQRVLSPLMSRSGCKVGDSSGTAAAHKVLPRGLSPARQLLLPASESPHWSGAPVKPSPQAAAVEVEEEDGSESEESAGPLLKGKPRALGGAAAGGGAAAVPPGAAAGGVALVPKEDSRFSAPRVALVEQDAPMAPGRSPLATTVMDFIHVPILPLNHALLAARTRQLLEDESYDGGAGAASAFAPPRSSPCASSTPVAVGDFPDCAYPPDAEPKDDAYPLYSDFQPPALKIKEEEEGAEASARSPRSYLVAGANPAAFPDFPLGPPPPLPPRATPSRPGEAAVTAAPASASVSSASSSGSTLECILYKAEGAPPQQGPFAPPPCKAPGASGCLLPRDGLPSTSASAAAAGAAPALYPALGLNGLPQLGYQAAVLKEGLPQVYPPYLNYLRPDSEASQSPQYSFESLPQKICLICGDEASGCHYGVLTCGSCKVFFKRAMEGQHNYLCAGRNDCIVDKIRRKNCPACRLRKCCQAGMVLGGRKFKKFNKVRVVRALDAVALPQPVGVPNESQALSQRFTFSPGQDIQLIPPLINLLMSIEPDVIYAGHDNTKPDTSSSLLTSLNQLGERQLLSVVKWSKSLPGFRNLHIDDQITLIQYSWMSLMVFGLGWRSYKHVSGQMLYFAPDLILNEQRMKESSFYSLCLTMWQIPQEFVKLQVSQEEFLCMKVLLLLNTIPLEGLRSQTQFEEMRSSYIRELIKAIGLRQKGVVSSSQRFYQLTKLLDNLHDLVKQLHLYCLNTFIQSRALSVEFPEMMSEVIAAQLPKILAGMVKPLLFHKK
As to the kind of experiment: Antagonism of Progesterone Receptor PR-B, transactivation assay. In kind it is cell-based. The note with it: PR-B transactivation assay as in WO 02/054064; for IC50: read-out: Antagonistic activity IC50. The procedure: Antagonism of Progesterone Receptor PR-B
The transactivation assay is performed as described in WO 02/054064.

The target in assay [2] is T1, Progesterone Receptor PR-B. As to the kind of experiment: Agonism of Progesterone Receptor PR-B, transactivation assay. The format is cell-based. The note with it: PR-B transactivation assay as in Fuhrmann et al. The procedure:
Agonism of Progesterone Receptor PR-B
The transactivation assay is performed as described in Fuhrmann et al. (Fuhrmann, U.; Hess-Stump, H.; Cleve, A.; Neef, G.; Schwede, W.; Hoffmann, J.; Fritzemeier, K.-H., Chwalisz, K.; Journal of Medicinal Chem., 43, 26, 2000, 5010-5016).

On to `O=C1OCc2cc(NC(=O)C(O)(C#Cc3ccc(O)cc3)CC3(c4cc(C(F)(F)F)ccc4F)CC3)ccc21` (racemic) [Example 7, rac-5-{2-Hydroxy-2-[(4-hydroxyphenyl)ethinyl]-3-[1-(2-fluoro-5-trifluoromethylphenyl)-cyclopropyl]-propionylamino}phthalide], for which, in assay [1], the “Antagonistic activity Efficacy” value is reported as 82% and the 50% inhibitory concentration (IC50) worked out at 4 nM. In addition, the “Agonistic activity Efficacy” value in assay [2] amounted to 11%. In addition, the concentration for a half-maximal effect (EC50) in assay [2] (read-out: Agonistic activity EC50) stood at 2 nM.
For `CCCC#CC(O)(CC1(c2cc(C(F)(F)F)ccc2F)CC1)C(=O)Nc1ccc2c(c1)COC2=O` (racemic) [Example 9, rac-5-{2-Hydroxy-3-[1-(2-fluoro-5-trifluoromethylphenyl)-cyclopropyl]-2-(pentin-1-yl)-propionylamino}phthalide], in assay [1], the “Antagonistic activity Efficacy” value is 96% and the half-inhibitory concentration (IC50) amounted to 3 nM. For the same compound, the “Agonistic activity Efficacy” value in assay [2] came out at 3%.
The matching figures for `O=C1OCc2cc(NC(=O)C(O)(C#CCO)CC3(c4cc(C(F)(F)F)ccc4F)CC3)ccc21` (racemic) [Example 13, rac-5-{2-Hydroxy-3-[1-(2-fluoro-5-trifluoromethylphenyl)-cyclopropyl]-2-[(3-hydroxy)propin-1-yl]-propionylamino}phthalide]: 92%, 3 nM and 7%.
The matching figures for `O=C1OCc2cc(NC(=O)C(O)(C#Cc3ccccc3)CC3(c4cc(C(F)(F)F)ccc4F)CC3)ccc21` (single isomer, unassigned; (-)) [Example 3b, (−)-5-{2-Hydroxy-3-[1-(2-fluoro-5-trifluoromethylphenyl)-cyclopropyl]-2-(phenylethinyl)-propionylamino}phthalide]: 97%, 0.4 nM and 2%.
